Results on twelve compounds are retold here after patent publication US10093630B2, “Pyrazole compounds and methods of making and using same” (ABIDE THERAPEUTICS, INC., priority 2014, dated 2018).

Experiment in all cases: In vitro competitive activity-based protein profiling (gel-based, FP-Rh or HT-01 probe)
Format in all cases: biochemical

One assay concerns the target T1, PLA2G7 (Mus musculus, UniProt Q60963).
T1 construct: Proteomes (mouse brain membrane fraction or cell lysates); from tissue; host or cells: mouse brain membrane fraction (or cell lysates, not specified)
T1 sequence (Q60963 22-440): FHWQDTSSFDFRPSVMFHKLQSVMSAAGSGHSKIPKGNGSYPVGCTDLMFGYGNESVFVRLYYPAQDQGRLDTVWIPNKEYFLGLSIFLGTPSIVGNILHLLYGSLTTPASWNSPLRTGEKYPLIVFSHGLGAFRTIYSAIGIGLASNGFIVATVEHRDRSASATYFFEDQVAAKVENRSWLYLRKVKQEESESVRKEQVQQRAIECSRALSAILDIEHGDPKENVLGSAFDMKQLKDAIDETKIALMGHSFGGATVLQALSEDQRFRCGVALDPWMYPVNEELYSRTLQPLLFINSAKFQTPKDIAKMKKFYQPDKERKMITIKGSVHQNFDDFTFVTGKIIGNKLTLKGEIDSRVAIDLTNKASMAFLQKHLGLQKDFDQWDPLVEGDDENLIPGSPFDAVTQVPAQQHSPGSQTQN
The settings on record: for inhibition at 10 µM: 10 μM inhibitor, read-out: % Inhibition at 10 μM, D = PLA2G7; for inhibition at 1 µM: 1 μM inhibitor, read-out: % Inhibition at 1 μM, D = PLA2G7; for IC50: mouse brain membrane fraction or cell lysates, 30 min preincubation at 37° C. The method, boiled down:
(§1)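 Mouse brain membrane or cell lysate proteomes (1.0 mg/mL) preincubated with inhibitors 30 min at 37° C, then labelled with FP-Rh or HT-01 for 30 min at 37° C. After SDS-PAGE, activity quantified from fluorescent band intensity.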

For another assay, the target named is T2, MAGL (Mus musculus, UniProt O35678).
T2 construct: Proteomes (mouse brain membrane fraction or cell lysates); from tissue; host or cells: mouse brain membrane fraction (or cell lysates, not specified)
T2 sequence (O35678 1-303): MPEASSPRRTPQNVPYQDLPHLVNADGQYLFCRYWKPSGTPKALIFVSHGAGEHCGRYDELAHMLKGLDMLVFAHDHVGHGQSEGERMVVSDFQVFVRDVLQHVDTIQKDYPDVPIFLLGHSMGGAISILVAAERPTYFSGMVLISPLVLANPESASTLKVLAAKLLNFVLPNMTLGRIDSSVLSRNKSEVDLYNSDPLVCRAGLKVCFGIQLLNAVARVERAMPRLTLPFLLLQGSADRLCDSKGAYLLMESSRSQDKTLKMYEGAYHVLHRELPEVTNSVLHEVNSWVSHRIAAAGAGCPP
The settings on record: for inhibition at 10 µM: 10 μM inhibitor; for inhibition at 1 µM: 1 μM inhibitor; for IC50: mouse brain membrane fraction or cell lysates, 30 min preincubation at 37° C., read-out: Mouse (IC50 value, nM) MAGL. The method, boiled down: as §1

A further assay addresses T3, FAAH (Mus musculus, UniProt O08914).
T3 construct: Proteomes (mouse brain membrane fraction or cell lysates); from tissue; host or cells: mouse brain membrane fraction (or cell lysates, not specified)
T3 sequence (O08914 1-579): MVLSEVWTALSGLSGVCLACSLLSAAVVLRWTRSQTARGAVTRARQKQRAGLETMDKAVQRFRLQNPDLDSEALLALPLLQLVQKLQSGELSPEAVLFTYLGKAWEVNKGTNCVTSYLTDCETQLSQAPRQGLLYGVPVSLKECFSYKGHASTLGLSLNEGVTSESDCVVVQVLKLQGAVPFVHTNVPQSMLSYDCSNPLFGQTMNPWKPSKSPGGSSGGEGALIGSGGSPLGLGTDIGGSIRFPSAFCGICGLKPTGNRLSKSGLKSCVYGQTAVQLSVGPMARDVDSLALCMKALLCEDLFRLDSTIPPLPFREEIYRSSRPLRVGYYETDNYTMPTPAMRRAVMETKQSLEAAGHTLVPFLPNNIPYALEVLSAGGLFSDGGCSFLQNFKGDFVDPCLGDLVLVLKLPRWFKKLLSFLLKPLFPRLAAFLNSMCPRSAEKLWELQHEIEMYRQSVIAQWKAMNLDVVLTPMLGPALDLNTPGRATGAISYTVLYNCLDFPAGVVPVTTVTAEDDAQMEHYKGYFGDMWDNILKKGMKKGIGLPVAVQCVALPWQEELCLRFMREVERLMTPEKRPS
Particulars: for inhibition at 10 µM: 10 μM inhibitor, read-out: % Inhibition at 10 μM, B = FAAH; for inhibition at 1 µM: 1 μM inhibitor, read-out: % Inhibition at 1 μM, B = FAAH; for IC50: mouse brain membrane fraction or cell lysates, 30 min preincubation at 37° C., read-out: Mouse (IC50 value, nM) FAAH. In short, it runs like this:
as §1

For a further assay, the target named is T4, ABHD6 (Mus musculus, UniProt Q8R2Y0).
T4 construct: Proteomes (mouse brain membrane fraction or cell lysates); from tissue; host or cells: mouse brain membrane fraction (or cell lysates, not specified)
T4 sequence (Q8R2Y0 1-336): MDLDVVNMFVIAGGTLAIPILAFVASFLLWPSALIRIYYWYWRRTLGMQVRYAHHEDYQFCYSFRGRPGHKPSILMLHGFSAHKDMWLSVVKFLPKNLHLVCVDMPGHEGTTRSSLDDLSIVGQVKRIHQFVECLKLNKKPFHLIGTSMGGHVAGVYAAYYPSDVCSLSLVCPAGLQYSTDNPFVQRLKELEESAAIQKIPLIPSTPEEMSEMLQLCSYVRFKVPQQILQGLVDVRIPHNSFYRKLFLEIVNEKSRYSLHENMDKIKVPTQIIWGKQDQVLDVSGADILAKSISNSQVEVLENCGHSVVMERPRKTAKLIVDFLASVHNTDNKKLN
The settings on record: for inhibition at 10 µM: 10 μM inhibitor, read-out: % Inhibition at 10 μM, C = ABHD6; for inhibition at 1 µM: 1 μM inhibitor, read-out: % Inhibition at 1 μM, C = ABHD6; for IC50: mouse brain membrane fraction or cell lysates, 30 min preincubation at 37° C., read-out: Mouse (IC50 value, nM) ABHD6. In short, it runs like this:
as §1

Structures are written as SMILES.

By inhibition is commonly meant how much of the control response was suppressed. By IC50 is commonly meant the concentration needed to halve the response being measured.

With `Cc1cnn(C(=O)N(C)CCN(C)C(=O)c2ccccc2)c1` [Example 172, N,4-Dimethyl-N-(2-(N-methylbenzamido)ethyl)-1H-pyrazole-1-carboxamide], the inhibition at 10 µM on PLA2G7, on MAGL, on FAAH and on ABHD6 was less than 25% each time.
Regarding `CC(=O)N1CCN(C(=O)n2cc(C#N)cn2)CC1` [Example 173, 1-(4-Acetylpiperazine-1-carbonyl)-1H-pyrazole-4-carbonitrile], the inhibition at 1 µM at PLA2G7 was greater than 75%; at MAGL it was less than 25%; at FAAH it was less than 25%; at ABHD6, less than 25%. Moreover, the inhibition at 10 µM on PLA2G7 was greater than 75%; on MAGL, 25 to 75%; on FAAH, less than 25%; on ABHD6, 25 to 75%.
With `CS(=O)(=O)N1CCN(C(=O)n2cc(C#N)cn2)CC1` [Example 174, 1-(4-(Methylsulfonyl)piperazine-1-carbonyl)-1H-pyrazole-4-carbonitrile], the inhibition at 1 µM at PLA2G7 was greater than 75%; on MAGL it was less than 25%; at FAAH, less than 25%; on ABHD6, greater than 75%. For the same compound, the inhibition at 10 µM on PLA2G7 is greater than 75%; at MAGL, 25 to 75%; at FAAH it was 25 to 75%; on ABHD6 it was greater than 75%.
For the compound `CN1CCN(C(=O)n2cc(C#N)cn2)CC1` [Example 175, 1-(4-Methylpiperazine-1-carbonyl)-1H-pyrazole-4-carbonitrile], the inhibition at 1 µM is less than 25% on PLA2G7, 25 to 75% at MAGL, 25 to 75% at FAAH and greater than 75% at ABHD6. In addition, the inhibition at 10 µM at PLA2G7, on MAGL, at FAAH and at ABHD6 was greater than 75% in each case.
For the compound `N#Cc1cnn(C(=O)N2CCN(C(=O)c3ccccc3)CC2)c1` [Example 176, 1-(4-Benzoylpiperazine-1-carbonyl)-1H-pyrazole-4-carbonitrile], the inhibition at 1 µM on PLA2G7 was greater than 75%; on MAGL it was greater than 75%; on FAAH it was less than 25%; on ABHD6, less than 25%. For the same compound, the inhibition at 10 µM was greater than 75% at PLA2G7, greater than 75% on MAGL, 25 to 75% at FAAH and greater than 75% on ABHD6.
Turning to `CC(=O)N1CCCN(C(=O)n2cc(C#N)cn2)CC1` [Example 177, 1-(4-Acetyl-1,4-diazepane-1-carbonyl)-1H-pyrazole-4-carbonitrile], the inhibition at 1 µM at PLA2G7, on MAGL, on FAAH and at ABHD6 was less than 25% each time. For the same compound, the inhibition at 10 µM is greater than 75% on PLA2G7, less than 25% at MAGL, greater than 75% on FAAH and greater than 75% at ABHD6.
Turning to `CS(=O)(=O)N1CCCN(C(=O)n2cc(C#N)cn2)CC1` [Example 178, 1-(4-(methylsulfonyl)-1,4-diazepane-1-carbonyl)-1H-pyrazole-4-carbonitrile], the inhibition at 1 µM at PLA2G7, on MAGL, at FAAH and on ABHD6 was less than 25% in each case. Further, the inhibition at 10 µM at PLA2G7 is 25 to 75%; at MAGL it was greater than 75%; at FAAH, greater than 75%; on ABHD6, greater than 75%.
As for `N#Cc1cnn(C(=O)N2CCCN(Cc3ccccc3)CC2)c1` [Example 179, 1-(4-Benzyl-1,4-diazepane-1-carbonyl)-1H-pyrazole-4-carbonitrile], the inhibition at 1 µM at PLA2G7 is less than 25%; on MAGL, greater than 75%; on FAAH, greater than 75%; at ABHD6 it was greater than 75%. Besides, the inhibition at 10 µM at PLA2G7, on MAGL, on FAAH and at ABHD6 was greater than 75% throughout. Moreover, the IC50 on PLA2G7 was greater than 1000 nM; on MAGL, greater than 1000 nM; on FAAH, less than 100 nM; on ABHD6 it was greater than 1000 nM.
Consider `N#Cc1cnn(C(=O)N2CCCN(C(=O)c3ccccc3)CC2)c1` [Example 180, 1-(4-Benzoyl-1,4-diazepane-1-carbonyl)-1H-pyrazole-4-carbonitrile], for which the inhibition at 1 µM at PLA2G7 is less than 25%; on MAGL it was greater than 75%; on FAAH, greater than 75%; on ABHD6 it was greater than 75%. The inhibition at 10 µM on PLA2G7, on MAGL, on FAAH and at ABHD6 was greater than 75% throughout. In addition, the IC50 at PLA2G7 is greater than 1000 nM; on MAGL, 100 to 1000 nM; on FAAH, 100 to 1000 nM; at ABHD6 it was greater than 1000 nM.
Consider `CC(=O)N(C)CCN(C)C(=O)n1cc(C#N)cn1` [Example 181, 4-Cyano-N-methyl-N-(2-(N-methylacetamido)ethyl)-1H-pyrazole-1-carboxamide], for which the inhibition at 1 µM at PLA2G7, at MAGL, at FAAH and at ABHD6 was less than 25% in each case. Besides, the inhibition at 10 µM at PLA2G7 is greater than 75%; on MAGL, less than 25%; at FAAH, greater than 75%; on ABHD6, greater than 75%.
For `CN(CCN(C)C(=O)n1cc(C#N)cn1)C(=O)c1ccccc1` [Example 182, 4-Cyano-N-methyl-N-(2-(N-methylbenzamido)ethyl)-1H-pyrazole-1-carboxamide], the inhibition at 1 µM at PLA2G7 was less than 25%; on MAGL, less than 25%; at FAAH it was greater than 75%; at ABHD6, less than 25%. The inhibition at 10 µM at PLA2G7, on MAGL, on FAAH and at ABHD6 was greater than 75% throughout.
For `CC(=O)N1CCN(C(=O)n2cc(Cl)cn2)CC1` [Example 183, 1-(4-(4-Chloro-1H-pyrazole-1-carbonyl)piperazin-1-yl)ethanone], the inhibition at 1 µM on PLA2G7, on MAGL, at FAAH and on ABHD6 was less than 25% in each case. Also, the inhibition at 10 µM on PLA2G7 is greater than 75%; at MAGL, less than 25%; at FAAH, less than 25%; on ABHD6, less than 25%.
